Consider 36 compounds from patent publication US20240174679A1, “HETEROAROYL AMIDES AS LRRK2 INHIBITORS, PHARMACEUTICAL COMPOSITIONS, AND USES THEREOF” (MERCK SHARP & DOHME LLC, priority 2021, published 2024).

Structures are written as SMILES.

GST tagged truncated human mutant G2019S LRRK2, sequence (Q5S007 970-2527 G2019S): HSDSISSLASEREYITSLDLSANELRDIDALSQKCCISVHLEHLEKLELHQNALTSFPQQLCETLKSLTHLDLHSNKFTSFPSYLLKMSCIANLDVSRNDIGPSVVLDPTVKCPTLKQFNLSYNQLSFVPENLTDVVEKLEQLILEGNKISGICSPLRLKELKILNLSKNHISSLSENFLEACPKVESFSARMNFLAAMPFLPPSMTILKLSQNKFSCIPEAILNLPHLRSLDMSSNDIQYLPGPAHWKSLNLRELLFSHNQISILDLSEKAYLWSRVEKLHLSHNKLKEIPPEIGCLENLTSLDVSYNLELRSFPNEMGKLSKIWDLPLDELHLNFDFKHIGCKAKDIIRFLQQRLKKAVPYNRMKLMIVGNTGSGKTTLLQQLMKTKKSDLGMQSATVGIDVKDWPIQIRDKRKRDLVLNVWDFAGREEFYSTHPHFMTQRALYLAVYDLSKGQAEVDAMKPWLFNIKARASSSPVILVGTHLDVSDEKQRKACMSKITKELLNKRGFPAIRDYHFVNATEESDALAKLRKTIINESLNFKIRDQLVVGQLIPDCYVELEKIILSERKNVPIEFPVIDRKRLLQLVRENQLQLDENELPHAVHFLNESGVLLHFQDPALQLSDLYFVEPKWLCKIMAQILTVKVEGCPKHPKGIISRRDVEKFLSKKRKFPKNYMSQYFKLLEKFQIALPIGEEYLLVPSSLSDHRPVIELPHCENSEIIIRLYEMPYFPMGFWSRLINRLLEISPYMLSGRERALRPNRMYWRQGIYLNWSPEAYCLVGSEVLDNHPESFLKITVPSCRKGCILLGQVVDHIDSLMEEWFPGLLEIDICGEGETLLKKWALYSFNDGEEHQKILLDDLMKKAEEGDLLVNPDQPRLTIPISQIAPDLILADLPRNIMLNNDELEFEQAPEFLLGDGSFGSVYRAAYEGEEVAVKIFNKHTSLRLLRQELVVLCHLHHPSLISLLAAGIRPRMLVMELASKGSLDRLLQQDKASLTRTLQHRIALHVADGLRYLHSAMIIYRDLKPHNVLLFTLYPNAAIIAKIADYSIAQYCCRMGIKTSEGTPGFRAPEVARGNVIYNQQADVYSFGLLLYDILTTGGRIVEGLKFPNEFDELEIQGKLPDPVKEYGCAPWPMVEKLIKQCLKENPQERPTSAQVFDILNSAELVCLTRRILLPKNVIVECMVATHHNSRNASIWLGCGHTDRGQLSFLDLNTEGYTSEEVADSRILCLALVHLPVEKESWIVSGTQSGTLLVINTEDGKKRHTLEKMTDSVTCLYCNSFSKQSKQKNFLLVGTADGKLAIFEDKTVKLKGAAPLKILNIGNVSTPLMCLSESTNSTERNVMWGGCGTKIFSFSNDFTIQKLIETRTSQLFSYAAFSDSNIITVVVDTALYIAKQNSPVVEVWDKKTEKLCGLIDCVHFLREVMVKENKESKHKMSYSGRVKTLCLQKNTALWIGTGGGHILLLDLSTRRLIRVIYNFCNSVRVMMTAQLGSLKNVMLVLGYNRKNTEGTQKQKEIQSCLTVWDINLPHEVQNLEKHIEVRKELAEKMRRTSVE

The first assay has as its target GST tagged truncated human mutant G2019S LRRK2 (Homo sapiens (Human), UniProt Q5S007, G2019S). The experiment in a line: LRRK2 Km ATP LanthaScreen Assay. The class given is biochemical. Particulars: 134 μM ATP (Km ATP), LRRKtide substrate, negative log of mean IC50 (molar). An outline of the steps: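 Truncated GST-tagged G2019S LRRK2 (1.25 nM enzyme solution) was preincubated with compound for 15 min at rt, then reacted for 90 min with fluorescein-LRRKtide and 134 μM ATP (Km) in Tris pH 8.5/MgCl2 buffer. After an EDTA stop, TR-FRET used a Tb anti-pERM antibody (520/495 nm ratio). IC50 came from a 4-parameter fit and is reported as pIC50, mean of several runs.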
`O=C(Nc1cnn(CC2CCC2)c1)c1cccc(-c2cnn3c2COCC3)n1` [Example 9-10, N-[1-(cyclobutylmethyl)-1H-pyrazol-4-yl]-6-(6,7-dihydro-4H-pyrazolo[5,1-c][1,4]oxazin-3-yl)pyridine-2-carboxamide]: the “LRRK2 pIC50” value is 7.76. The same measure, in the same setting: next, `O=C(Nc1cnn(CC2CCC2)c1)c1cccc(-c2ccc(F)cc2F)n1` [Example 9-11, N-[1-(cyclobutylmethyl)-1H-pyrazol-4-yl]-6-(2,4-difluorophenyl) pyridine-2-carboxamide]: 5.63; `COCCn1cc(-c2cccc(C(=O)Nc3cnn(CC4CCC4)c3)n2)cn1` [Example 9-12, N-[1-(cyclobutylmethyl)-1H-pyrazol-4-yl]-6-[1-(2-methoxyethyl)-1H-pyrazol-4-yl]pyridine-2-carboxamide]: 6.95.

Consider `O=C(Nc1cnn(CC2CCC2)c1)c1cccc(-c2cnn3c2CCCC3)n1` [Example 9-13, N-[1-(cyclobutylmethyl)-1H-pyrazol-4-yl]-6-(4,5,6,7-tetrahydropyrazolo [1,5-a]pyridin-3-yl)pyridine-2-carboxamide], for which the “LRRK2 pIC50” value came out at 7.68.

In the case of `O=C(Nc1cnn(C2CCC2)c1)c1csc(-c2cc[nH]n2)n1` [Example 9-14, N-(1-cyclobutyl-1H-pyrazol-4-yl)-2-(1H-pyrazol-3-yl)-1,3-thiazole-4-carboxamide], the “LRRK2 pIC50” value came to 7.41. On the same count and under the same terms, next, `O=C(Nc1cnn(CC2CCC2)c1)c1cccc(-c2cnsc2)n1` [Example 9-15, N-[1-(cyclobutylmethyl)-1H-pyrazol-4-yl]-6-isothiazol-4-ylpyridine-2-carboxamide]: 6.66; `O=C(Nc1cnn(CC2CCC2)c1)c1cccc(-c2ccncc2)n1` [Example 9-16, N-[1-(cyclobutylmethyl)-1H-pyrazol-4-yl]-2,4′-bipyridine-6-carboxamide]: 5.04. On the same count and under the same terms, next, `O=C(Nc1cnn(C2CCC2)c1)c1csc(-c2cnn(C(F)F)c2)n1` [Example 9-17, N-(1-cyclobutyl-1H-pyrazol-4-yl)-2-[1-(difluoromethyl)-1H-pyrazol-4-yl]-1,3-thiazole-4-carboxamide]: 7.50.

With `Cc1[nH]ncc1-c1nc(C(=O)Nc2cnn(C3CCC3)c2)cs1` [Example 9-18, N-(1-cyclobutyl-1H-pyrazol-4-yl)-2-(5-methyl-1H-pyrazol-4-yl)-1,3-thiazole-4-carboxamide], the “LRRK2 pIC50” value was found to be 7.59.

In the case of `O=C(Nc1cnn(CC2CCC2)c1)c1cccc(-c2ccnnc2)n1` [Example 9-19, N-[1-(cyclobutylmethyl)-1H-pyrazol-4-yl]-6-pyridazin-4-ylpyridine-2-carboxamide], the “LRRK2 pIC50” value was 5.22. Regarding `Cn1nccc1-c1cccc(C(=O)Nc2cnn(CC3CCC3)c2)n1` [Example 9-20, N-[1-(cyclobutylmethyl)-1H-pyrazol-4-yl]-6-(1-methyl-1H-pyrazol-5-yl)pyridine-2-carboxamide], the “LRRK2 pIC50” value was found to be 5.07. In the case of `O=C(Nc1cnn(C2CCC2)c1)c1csc(-c2cnn3c2OCCC3)n1` [Example 9-21, N-(1-cyclobutyl-1H-pyrazol-4-yl)-2-(6,7-dihydro-5H-pyrazolo[5,1-b][1,3]oxazin-3-yl)-1,3-thiazole-4-carboxamide], the “LRRK2 pIC50” value was 8.08. Consider `Cn1ccc(-c2cccc(C(=O)Nc3cnn(CC4CCC4)c3)n2)n1` [Example 9-22, N-[1-(cyclobutylmethyl)-1H-pyrazol-4-yl]-6-(1-methyl-1H-pyrazol-3-yl)pyridine-2-carboxamide], for which the “LRRK2 pIC50” value came to 6.53. On the same count and under the same terms, the result for `Cn1cc(-c2nccc(C(=O)Nc3cnn(C4CCC4)c3)n2)cn1` [Example 9-23, N-(1-cyclobutyl-1H-pyrazol-4-yl)-2-(1-methyl-1H-pyrazol-4-yl)pyrimidine-4-carboxamide] reads 7.47; that for `O=C(Nc1cnn(CC2CCC2)c1)c1cccc(-c2cccnc2F)n1` [Example 9-24, N-[1-(cyclobutylmethyl)-1H-pyrazol-4-yl]-2′-fluoro-2,3′-bipyridine-6-carboxamide], 7.16. `Cn1cc(-c2cccc(C(=O)Nc3cnn(CC4CCC4)c3)n2)cn1` [Example 9-25, N-[1-(cyclobutylmethyl)-1H-pyrazol-4-yl]-6-(1-methyl-1H-pyrazol-4-yl)pyridine-2-carboxamide]: the “LRRK2 pIC50” value turned out to be 7.38. For `Cc1n[nH]c(C)c1-c1cccc(C(=O)Nc2cnn(CC3CCC3)c2)n1` [Example 9-26, N-[1-(cyclobutylmethyl)-1H-pyrazol-4-yl]-6-(3,5-dimethyl-1H-pyrazol-4-yl)pyridine-2-carboxamide], the “LRRK2 pIC50” value is listed as 6.09. For the compound `O=C(Nc1cnn(C2CCC2)c1)c1csc(-c2cnn3c2CCCC3)n1` [Example 9-27, N-(1-cyclobutyl-1H-pyrazol-4-yl)-2-(4,5,6,7-tetrahydropyrazolo [1,5-a]pyridin-3-yl)-1,3-thiazole-4-carboxamide], the “LRRK2 pIC50” value is reported as 8.25. Turning to `Cn1cc(-c2nc(C(=O)Nc3cnn(C4CCC4)c3)cs2)cn1` [Example 9-28, N-(1-cyclobutyl-1H-pyrazol-4-yl)-2-(1-methyl-1H-pyrazol-4-yl)-1,3-thiazole-4-carboxamide], the “LRRK2 pIC50” value came out at 7.85. Turning to `N#Cc1cccc(-c2cccc(C(=O)Nc3cnn(CC4CCC4)c3)n2)c1` [Example 9-29, 6-(3-cyanophenyl)-N-[1-(cyclobutylmethyl)-1H-pyrazol-4-yl]pyridine-2-carboxamide], the “LRRK2 pIC50” value amounted to 5.51. Regarding `COc1ccncc1-c1cccc(C(=O)Nc2cnn(CC3CCC3)c2)n1` [Example 9-30, N-[1-(cyclobutylmethyl)-1H-pyrazol-4-yl]-4′-methoxy-2,3′-bipyridine-6-carboxamide], the “LRRK2 pIC50” value was 6.76. Still for that read-out and setting: next, `O=C(Nc1cnn(CC2CCC2)c1)c1cccc(-c2csc3ccccc23)n1` [Example 9-31, 6-(1-benzothiophen-3-yl)-N-[1-(cyclobutylmethyl)-1H-pyrazol-4-yl]pyridine-2-carboxamide]: 5.18; `Cn1ccc(-c2cccc(C(=O)Nc3cnn(CC4CCC4)c3)n2)c1` [Example 9-32, N-[1-(cyclobutylmethyl)-1H-pyrazol-4-yl]-6-(1-methyl-1H-pyrrol-3-yl)pyridine-2-carboxamide]: 6.59. Same read-out and setting: next, `O=C(Nc1cnn(CC2CCC2)c1)c1cccc(-c2cnn(C(F)F)c2)n1` [Example 9-33, N-[1-(cyclobutylmethyl)-1H-pyrazol-4-yl]-6-[1-(difluoromethyl)-1H-pyrazol-4-yl]pyridine-2-carboxamide]: 6.75; `O=C(Nc1cnn(CC2CCC2)c1)c1cccc(-c2cccnc2)n1` [Example 9-34, N-[1-(cyclobutylmethyl)-1H-pyrazol-4-yl]-2,3′-bipyridine-6-carboxamide]: 6.90; `O=C(Nc1cnn(CC2CCC2)c1)c1cccc(-c2cnn(CCN3CCOCC3)c2)n1` [Example 9-35, N-[1-(cyclobutylmethyl)-1H-pyrazol-4-yl]-6-[1-(2-morpholin-4-ylethyl)-1H-pyrazol-4-yl]pyridine-2-carboxamide]: 5.32. Consider `O=C(Nc1cnn(CC2CCC2)c1)c1cccc(-c2cnn(Cc3cccnc3)c2)n1` [Example 9-36, N-[1-(cyclobutylmethyl)-1H-pyrazol-4-yl]-6-[1-(pyridin-3-ylmethyl)-1H-pyrazol-4-yl]pyridine-2-carboxamide], for which the “LRRK2 pIC50” value is reported as 6.90. For `Cn1cc(-c2cccc(C(=O)Nc3cnn(C4CCC4)c3)c2F)cn1` [Example 9-38, N-(1-cyclobutyl-1H-pyrazol-4-yl)-2-fluoro-3-(1-methyl-1H-pyrazol-4-yl)benzamide], the “LRRK2 pIC50” value is reported as 7.10.

Regarding `O=C(Nc1cnn(C2CCC2)c1)c1csc(-c2cccnc2)n1` [Example 9-39, N-(1-cyclobutyl-1H-pyrazol-4-yl)-2-(pyridin-3-yl)thiazole-4-carboxamide], the “LRRK2 pIC50” value stood at 7.06. Regarding `O=C(Nc1cnn(C2CC2)c1)c1csc(-c2ccn[nH]2)n1` [Example 9-40, N-(1-cyclopropyl-1H-pyrazol-4-yl)-2-(1H-pyrazol-5-yl)thiazole-4-carboxamide], the “LRRK2 pIC50” value is on record as 7.06. The same measure, in the same setting: the result for `N#CC1(c2cccc(C(=O)Nc3cnn(CC4CCC4)c3)n2)CC1` [Example 10-1, 6-(1-Cyanocyclopropyl)-N-(1-(cyclobutylmethyl)-1H-pyrazol-4-yl)picolinamide] reads 6.90; that for `O=C(Nc1cnn(C2CCC2)c1)c1csc(-n2ccnc2)n1` [Example 11-2, N-(1-cyclobutyl-1H-pyrazol-4-yl)-2-(1H-imidazol-1-yl)thiazole-4-carboxamide], 6.61. On the same count and under the same terms, the result for `Cn1cc(-c2nc(C(=O)Nc3cnn(CC4CCC4)c3)cs2)cn1` [Example 12-1, N-(1-(Cyclobutylmethyl)-1H-pyrazol-4-yl)-2-(1-methyl-1H-pyrazol-4-yl)thiazole-4-carboxamide] reads 7.74; that for `Cn1cc(-c2nc(C(=O)Nc3cn(C4CCC4)nc3C3CC3)cs2)cn1` [Example 12-2, N-(1-cyclobutyl-3-cyclopropyl-1H-pyrazol-4-yl)-2-(1-methyl-1H-pyrazol-4-yl)-1,3-thiazole-4-carboxamide], 7.76; that for `Cn1cc(-c2nc(C(=O)Nc3cn(C4CC4)nc3C3CC3)cs2)cn1` [Example 12-3, N-(1,3-dicyclopropyl-1H-pyrazol-4-yl)-2-(1-methyl-1H-pyrazol-4-yl)-1,3-thiazole-4-carboxamide], 7.84.

The same assay, now with this note: 134 μM ATP (Km ATP), LRRKtide substrate, negative log of mean IC50 (molar), read-out: LRRK2 pIC50 (converted).
On to `O=C(Nc1cnn(C2CCC2)c1)c1csc(-n2cccn2)n1` [Example 11-1, N-(1-Cyclobutyl-1H-pyrazol-4-yl)-2-(1H-pyrazol-1-yl)thiazole-4-carboxamide], for which the IC50 is 0.1 µM.
